Patent publication USRE43244E1, “Phenylethylamines and condensed rings variants as prodrugs of catecholamines, and their use” (priority 2001, dated 2012)
Counter-ions that a name gives are not always drawn.

Key:
DA receptors = conditions: cited from earlier work
rats [1] = conditions: cited from earlier work
D3 dopamine receptor = D3 dopamine receptor (Rattus norvegicus, UniProt P19020); conditions: among screened classical and atypical neuroleptics; cited from earlier work
Dopa accumulation = conditions: normal animals, after NSD1015; cited from earlier work
[2] = tested on: DA metabolites DOPAC and HVA; conditions: no NSD1015 treatment; cited from earlier work
rodents = conditions: cited from earlier work; for Dopaminergic stereotypic behavioral effects (sniffing, rearing): gross behavioral observations, certain dosages, rodents; for Locomotor activity: photocell motility meters
rats [3] = experiment: Behavioral testing in rats of GMC6650; assay type: in vivo, rat
Protocol: Behavioral Testing in Rats of Compound GMC6650 (Example 6)
One rat, weighing about 350 g, was injected SC in the neck with 1 μmol/kg of GMC6650. Another rat, weighing about 350 g, was injected PO with the same dose. The drug (3.4 mg) was initially dissolved in: ethanol (50 μL), 1 M acetic acid (2 drops), and water (1.4 mL), corresponding to 15 μmol per 1.5 mL, which means a concentration of 10 μmol/mL. By first diluting that solution 10 times and injecting 0.35 mL, the given dose will be 1 μmol/kgμmol/kg. This goes for both of rats.
Stereotypy was intense and was registered for several hours by visual inspection. […] The next morning, the SC rat was still active, while the PO rat was resting. Duration of action was thus ≧10 h for both sc and po administration of 1 μmol/kg.

[4] = 1 μmol/kg, SC or PO (same pattern in both rats)

Sequence of D3 dopamine receptor (P19020 whole entry): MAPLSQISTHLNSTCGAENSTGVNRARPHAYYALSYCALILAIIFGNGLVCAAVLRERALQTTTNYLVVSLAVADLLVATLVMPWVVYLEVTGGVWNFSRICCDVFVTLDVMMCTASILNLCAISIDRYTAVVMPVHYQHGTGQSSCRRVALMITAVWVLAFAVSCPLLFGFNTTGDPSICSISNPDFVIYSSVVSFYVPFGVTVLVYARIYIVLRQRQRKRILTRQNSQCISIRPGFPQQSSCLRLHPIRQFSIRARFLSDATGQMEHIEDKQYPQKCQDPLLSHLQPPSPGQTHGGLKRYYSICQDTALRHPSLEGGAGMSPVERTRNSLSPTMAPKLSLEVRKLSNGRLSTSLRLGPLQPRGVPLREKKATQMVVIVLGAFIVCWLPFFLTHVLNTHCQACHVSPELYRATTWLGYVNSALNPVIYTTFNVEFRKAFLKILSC

For `CCCN(CCC)CCC1=CC(=O)CCC1` (as salt: hydrochloride), the melting point was 95 to 97 °C.

Molecule `CCCN1CCCC(C2=CC(=O)CCC2)C1` (stereo not shown) (as salt: hydrochloride) has a melting point of 184 to 185 °C.

With `CCN(CC)CCC1=CC(=O)CCC1` (as salt: hydrochloride) the melting point was 148 to 149 °C.

In the case of `CCCN(CCC1=CC(=O)CCC1)CCc1ccccc1` (as salt: hydrochloride), the melting point is reported as 110 to 112 °C.

In the case of `CCCN(CCC)C1CCC2=C(CCCC2=O)C1` (racemic) [(±)-5-keto-DPATT, (±)-5-keto-2-N,N-di-n-propylamino-tetrahydrotetralin], the “Affinity to DA receptors (in vitro binding)” value (DA receptors) is listed as “no affinity” and the “Dopaminergic effects in vivo” value (rats [1]) is listed as “does possess dopaminergic effects”.

In the case of `CCCN[C@@H]1CCc2c(OC)cccc2[C@@H]1C` (relative stereo) [(+)-AJ76, (+)-cis-1S,2R-5-methoxy-1-methyl-2-(N-n-propylamino)tetralin], the “Preference for the D3 site” value (D3 dopamine receptor) is given as “highest preference for the D3 site”, the Dopa accumulation (Dopa accumulation) is given as “raise the Dopa accumulation” and the “Levels of DA metabolites DOPAC and HVA” value [2] is given as “raise the levels”. For the same molecule, the “Dopaminergic stereotypic behavioral effects (sniffing, rearing)” value (rodents) was “weak” and the Locomotor activity (rodents) was “increase the locomotor activity”.

For `CCCN(CCC)[C@@H]1CCc2c(OC)cccc2[C@@H]1C` (relative stereo) [(+)-UH232, (+)-cis-1S,2R-5-methoxy-1-methyl-2-(N,N-di-n-propylamino)tetralin], the “Preference for the D3 site” value (D3 dopamine receptor) is listed as “highest preference for the D3 site”, the Dopa accumulation (Dopa accumulation) is listed as “raise the Dopa accumulation” and the “Levels of DA metabolites DOPAC and HVA” value [2] is listed as “raise the levels”. The “Dopaminergic stereotypic behavioral effects (sniffing, rearing)” value (rodents) was “weak” and the Locomotor activity (rodents) was “increase the locomotor activity”.

In the case of `CCCN1CCC[C@@H]2CC3=C(CCCC3=O)C[C@H]21` (relative stereo) [GMC6650, 1-Propyl-trans-2,3,4,4a,5,7,8,9,10,10a-decahydrobenzo[g]quinolin-6-one], the “Activity the next morning” value (rats [3]; 1 μmol/kg PO) is reported as “resting”, the “Activity the next morning” value (rats [3]; 1 μmol/kg SC) is reported as “still active” and the Duration of action (rats [3]; 1 μmol/kg po) is reported as no less than 10 h. The Duration of action (rats [3]; 1 μmol/kg sc) was no less than 10 h, the “Stereotypy after 10 hours” value (rats [3]; 1 μmol/kg, SC and PO rat, 10 hours after dosing) was “still showing signs of stereotypy” and the “Time until clear signs of stereotypy” value (rats [3]; [4]) was 30 min. For the same molecule, the “Time until obvious dopaminergic effects (chewing, sniffing, licking, penile grooming, grooming)” value (rats [3]; [4]) was 15 min, the “Time until rats became sedated, closing or partly closing their eyes” value (rats [3]; [4]) was 10 min and the “Stereotypy, visual inspection” value (rats [3]; 1 μmol/kg, SC or PO, registered for several hours) was “intense”.
